Assay results taken from US20240116918A1, “SUBSTITUTED TRICYCLIC COMPOUND AS PRMT5 INHIBITOR AND USE THEREOF” (NANJING SANHOME PHARMACEUTICAL CO., LTD., priority 2019, published 2024).

Legend:
NCI-H358 cells = assay: In vitro cell activity, NCI-H358 cells, CCK-8; type: cell-based; details: NCI-H358, 168 h, human non-small cell lung cancer cells, 7 days
Protocol: Test compounds: the compounds of the present invention prepared in the above example. Each compound was formulated into a 10 mM stock solution with DMSO, and finally diluted into 8 concentrations for detection, with the final concentrations being 33333.00 nM, 6666.60 nM, 1333.32 nM, 266.66 nM, 53.33 nM, 10.67 nM, 2.13 nM, and 0.43 nM for experiments in Z-138 cells.
2.1.3 NCI-H358 cell thawing: The cryovial for NCI-H358 cells was taken out from a liquid nitrogen tank and placed in a 37° C. water bath, and shaken gently for thawing as soon as possible. After thawing, the cryovial was taken out, and sterilized with an alcohol cotton ball, after which the cap was unscrewed. The cell fluid was drawn and injected into a centrifuge tube. 1 mL of 1640 medium containing 10% FBS was added, and mixed uniformly. The tube was placed in a centrifuge, and centrifuged at 1000 rpm for 5 min. Afterwards, the supernatant was discarded, and complete medium was added. The mixture was pipetted repeatedly until the cells were completely dispersed and resuspended. The mixture was inoculated in a petri dish at an appropriate concentration, and cultured in a CO2 incubator at 37° C., 5% CO2, and 95% humidified air.
2.2.3 NCI-H358 cell culture and passage: The cells grew to about 80-90%. The medium (1640 medium+10% FBS+1% penicillin-streptomycin+1 mM sodium pyruvate) was transferred to a 15 mL centrifuge tube, and centrifuged at 1000 rpm for 5 min. The supernatant was removed. The cells were resuspended in complete medium, and inoculated in a petri dish at the desired density. The dish was placed in a CO2 incubator at 37° C., 5% CO2, and 95% humid air. The culture medium was changed every 2-3 days or the passage was carried out, depending on the cell growth.
After passage, NCI-H358 cells were resuspended in complete medium at the corresponding density, 1000 cells/well, and inoculated in a 96-well culture plate. The wells at the outer circumference were filled with 200 μL PBS to prevent the culture conditions of the inside plate wells from being too different from each other due to the faster evaporation of medium at the edge. The leftmost column of the 60 inner wells were blank wells, which were not added with cells, but filled with equal volume of PBS. The remaining 54 wells were subjected to cell plating with a multichannel pipette, to each well was added 100 μL. […]
The first column of PBS was used as a blank control well, and 100 μL of CCK-8 was added synchronously thereto. […] The optimal detection time was determined according to the shade of color developed by CCK-8 (the optimal OD value for the DMSO group was about 1.0). […] The microplate reader software was opened, the detection parameters were adjusted, and the absorbance at 450 nm (OD value) was detected. […]

ex vivo heart = assay: Ex vivo heart experiments, QT interval

CC(=O)N1CCC(Nc2cc(C(=O)NC[C@H](O)CN3CCc4ccccc4C3)ncn2)CC1 [Compound A, (S)-6-((1-Acetylpiperidin-4-yl)amino)-N-(3-(3,4-dihydroisoquinolin-2(1H)-yl)-2-hydroxypropyl)pyrimidine-4-carboxamide]
IC50 (NCI-H358 cells): 73.2 nM

CC(=O)N1CCC(Nc2ccc3c(c2)C(=O)N(C[C@H](O)CN2CCc4ccccc4C2)CC32CC2)CC1 [Compound B, (R)-7′-((1-Acetylpiperidin-4-yl)amino)-2′-(3-(3,4-dihydroisoquinolin-2(1H)-yl)-2-hydroxypropyl)-2′,3′-dihydro-1′H-spiro[cyclopropane-1,4′-isoquinolin]-1′-one, reference compound]
effect on the QT interval (ex vivo heart): significant prolongation of the QT interval
IC50 (NCI-H358 cells): 15.3 nM

CC(=O)N1CCC(Nc2cc3c(cn2)C2(CC2)CN(C[C@H](O)CN2CCc4ccccc4C2)C3=O)CC1 [Example 1, (R)-7′-((1-acetylpiperidin-4-yl)amino)-2′-(3-(3,4-dihydroisoquinolin-2(1H)-yl)-2-hydroxypropyl)-2′,3′-dihydro-1′H-spiro[cyclopropane-1,4′-[2,6]naphthyridin]-1′-one]
effect on the QT interval (ex vivo heart): no effect on the QT interval
IC50 (NCI-H358 cells): 8.9 nM

CC(=O)N1CC2(CC(Nc3cc4c(cn3)C3(CC3)CN(C[C@H](O)CN3CCc5ccccc5C3)C4=O)C2)C1 [Example 2, (R)-7′-((2-acetyl-2-azaspiro[3.3]hept-6-yl)amino)-2′-(3-(3,4-dihydroisoquinolin-2(1H)-yl)-2-hydroxypropyl)-2′,3′-dihydro-1′H-spiro[cyclopropane-1,4′-[2,6]naphthyridin]-1-one]
effect on the QT interval (ex vivo heart): no effect on the QT interval
IC50 (NCI-H358 cells): 5.02 nM
